Measurements reported in ChEMBL document CHEMBL1909046, “DrugMatrix in vitro pharmacology data”.

Columns and labels:
[1] = target: T1, Cysteinyl leukotriene receptor 1 (Homo sapiens, UniProt Q9Y271); assay type: cell membranes, CHO-K1, Membrane; details: cho-k1; also: in other assays of this panel Not Active means under 50% inhibition at 10 µM
T1 sequence (Q9Y271 whole entry): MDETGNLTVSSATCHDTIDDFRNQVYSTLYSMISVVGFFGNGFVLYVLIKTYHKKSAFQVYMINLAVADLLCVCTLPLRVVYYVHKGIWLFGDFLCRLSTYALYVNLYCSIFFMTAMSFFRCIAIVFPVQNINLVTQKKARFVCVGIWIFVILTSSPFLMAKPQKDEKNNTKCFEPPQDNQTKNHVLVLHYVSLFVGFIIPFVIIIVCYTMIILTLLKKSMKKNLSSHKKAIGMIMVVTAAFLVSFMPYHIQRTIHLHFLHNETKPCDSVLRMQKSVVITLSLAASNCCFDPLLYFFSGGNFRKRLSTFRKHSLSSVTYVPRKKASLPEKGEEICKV

[2] = DRUGMATRIX: Nicotinic Acetylcholine radioligand binding (ligand: [125I] Epibatidine); assay type: cell membranes, Membrane; details: imr-32; Not Active = under 50% inhibition at 10 µM
[3] = target: Epidermal growth factor receptor (Homo sapiens, UniProt P00533); assay: DRUGMATRIX: Protein Tyrosine Kinase, EGF Receptor enzyme inhibition (substrate: Poly(Glu:Tyr)); assay type: cell-based, Insect cells; details: insect cells; Not Active = under 50% inhibition at 10 µM
Epidermal growth factor receptor, sequence (P00533 whole entry): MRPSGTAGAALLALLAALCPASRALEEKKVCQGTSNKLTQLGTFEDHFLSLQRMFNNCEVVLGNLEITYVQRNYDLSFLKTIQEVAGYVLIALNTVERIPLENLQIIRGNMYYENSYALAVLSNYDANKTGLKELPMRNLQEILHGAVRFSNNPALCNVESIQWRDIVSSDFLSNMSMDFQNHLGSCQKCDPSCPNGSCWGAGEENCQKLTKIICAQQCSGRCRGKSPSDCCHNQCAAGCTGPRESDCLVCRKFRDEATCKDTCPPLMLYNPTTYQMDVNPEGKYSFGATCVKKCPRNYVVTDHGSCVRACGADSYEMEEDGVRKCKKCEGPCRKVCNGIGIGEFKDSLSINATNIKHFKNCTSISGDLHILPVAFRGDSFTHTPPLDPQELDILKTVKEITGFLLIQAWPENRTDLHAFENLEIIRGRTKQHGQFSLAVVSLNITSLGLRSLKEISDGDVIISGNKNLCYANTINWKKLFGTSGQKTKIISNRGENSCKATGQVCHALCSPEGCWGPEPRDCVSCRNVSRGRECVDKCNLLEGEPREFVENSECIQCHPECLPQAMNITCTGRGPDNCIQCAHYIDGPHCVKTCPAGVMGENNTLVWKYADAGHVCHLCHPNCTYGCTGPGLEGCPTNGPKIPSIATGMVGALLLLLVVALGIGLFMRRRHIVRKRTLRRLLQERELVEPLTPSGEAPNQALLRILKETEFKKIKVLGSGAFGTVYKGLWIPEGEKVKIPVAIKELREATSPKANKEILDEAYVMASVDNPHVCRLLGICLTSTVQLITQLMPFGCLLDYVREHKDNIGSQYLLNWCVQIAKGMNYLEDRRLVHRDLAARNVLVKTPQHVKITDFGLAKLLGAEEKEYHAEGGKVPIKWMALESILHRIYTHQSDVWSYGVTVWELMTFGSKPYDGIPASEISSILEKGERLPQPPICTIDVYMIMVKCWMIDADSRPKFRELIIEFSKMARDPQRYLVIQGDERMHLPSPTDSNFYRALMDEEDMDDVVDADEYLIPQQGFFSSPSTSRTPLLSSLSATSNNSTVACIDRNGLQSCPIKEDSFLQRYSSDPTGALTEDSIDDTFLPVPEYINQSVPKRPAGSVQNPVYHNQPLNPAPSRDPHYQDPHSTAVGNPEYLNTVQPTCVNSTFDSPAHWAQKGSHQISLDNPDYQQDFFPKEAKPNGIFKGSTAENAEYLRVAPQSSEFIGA

[4] = DRUGMATRIX: GABAA, Flunitrazepam, Central radioligand binding (ligand: [3H] Flunitrazepam); assay type: cell membranes, Rattus norvegicus, Wistar, Brain, Membrane; details: Not Active = under 50% inhibition at 10 µM
[5] = target: Tyrosine-protein kinase Fyn (Homo sapiens, UniProt P06241); assay: biochemical; assay type: cell-based, Insect cells; details: insect cells;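 also: enzymatic inhibition of Fyn kinase activity measured with Poly(Glu:Tyr) as the phosphorylation substrate; in other assays of this panel Not Active means under 50% inhibition at 10 µM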
Tyrosine-protein kinase Fyn, sequence (P06241 whole entry): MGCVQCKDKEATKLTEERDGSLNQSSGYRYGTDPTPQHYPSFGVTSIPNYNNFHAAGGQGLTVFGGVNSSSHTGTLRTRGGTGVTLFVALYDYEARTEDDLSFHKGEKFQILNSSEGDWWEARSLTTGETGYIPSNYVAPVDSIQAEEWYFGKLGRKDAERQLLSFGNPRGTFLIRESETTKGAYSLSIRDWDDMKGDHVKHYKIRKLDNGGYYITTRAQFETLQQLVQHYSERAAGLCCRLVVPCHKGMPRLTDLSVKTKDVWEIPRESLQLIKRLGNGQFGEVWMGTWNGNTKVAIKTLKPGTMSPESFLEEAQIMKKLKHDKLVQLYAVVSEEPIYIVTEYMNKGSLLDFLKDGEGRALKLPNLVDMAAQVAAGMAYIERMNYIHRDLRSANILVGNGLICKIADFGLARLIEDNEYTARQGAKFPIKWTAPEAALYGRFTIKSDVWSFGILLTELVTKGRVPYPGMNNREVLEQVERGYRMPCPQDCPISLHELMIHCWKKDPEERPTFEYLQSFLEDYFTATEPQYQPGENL

Mu-type opioid receptor = Mu-type opioid receptor (Homo sapiens, UniProt P35372); assay: DRUGMATRIX: Opiate mu (OP3, MOP) radioligand binding (ligand: [3H] Diprenorphine); assay type: cell membranes, CHO-K1, Membrane; details: cho-k1; Not Active = under 50% inhibition at 10 µM
Mu-type opioid receptor, sequence (P35372 whole entry): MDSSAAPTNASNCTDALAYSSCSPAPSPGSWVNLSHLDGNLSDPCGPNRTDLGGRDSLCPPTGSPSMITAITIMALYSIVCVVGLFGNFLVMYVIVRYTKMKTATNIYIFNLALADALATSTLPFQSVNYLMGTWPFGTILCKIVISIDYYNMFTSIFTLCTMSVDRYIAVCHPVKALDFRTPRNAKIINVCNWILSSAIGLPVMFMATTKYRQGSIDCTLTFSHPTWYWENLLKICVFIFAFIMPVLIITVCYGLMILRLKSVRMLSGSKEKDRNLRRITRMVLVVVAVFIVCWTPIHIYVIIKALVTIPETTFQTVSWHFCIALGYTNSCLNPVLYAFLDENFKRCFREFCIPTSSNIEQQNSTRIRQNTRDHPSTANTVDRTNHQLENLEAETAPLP

CC1(C)O[C@@H]2C[C@H]3[C@@H]4CCC5=CC(=O)C=C[C@]5(C)[C@@]4(F)[C@@H](O)C[C@]3(C)[C@]2(C(=O)CO)O1 [TRIAMCINOLONE ACETONIDE]
Not Active: IC50 [1] | IC50 [2] | Ki [2] | IC50 [3] | IC50 [4] | Ki [4] | IC50 [5] | IC50 (Mu-type opioid receptor)

NS(=O)(=O)c1cc2c(cc1Cl)NC(C(Cl)Cl)NS2(=O)=O (stereo not given) [TRICHLORMETHIAZIDE]
Not Active: IC50 [1] | IC50 [2] | Ki [2] | IC50 [3] | IC50 [4] | Ki [4] | IC50 [5] | IC50 (Mu-type opioid receptor)

Cc1c(C)c2c(c(C)c1O)CCC(C)(COc1ccc(CC3SC(=O)NC3=O)cc1)O2 (stereo not given) [TROGLITAZONE]
Not Active: IC50 [1] | IC50 [2] | Ki [2] | IC50 [3] | IC50 [4] | Ki [4] | IC50 [5] | IC50 (Mu-type opioid receptor)

CC[C@]1(O)C[C@H]2CN(CCc3c([nH]c4ccccc34)[C@@](C(=O)OC)(c3cc4c(cc3OC)N(C=O)[C@H]3[C@@](O)(C(=O)OC)[C@H](OC(C)=O)[C@]5(CC)C=CCN6CC[C@]43[C@@H]65)C2)C1 [VINCRISTINE]
Not Active: IC50 [1] | IC50 [2] | Ki [2] | IC50 [3] | IC50 [4] | Ki [4] | IC50 [5] | IC50 (Mu-type opioid receptor)

CCCOc1ccccc1-c1nc2nn[nH]c2c(=O)[nH]1 [ZAPRINAST]
Not Active: IC50 [1] | IC50 [2] | Ki [2] | IC50 [3] | IC50 [4] | Ki [4] | IC50 [5] | IC50 (Mu-type opioid receptor)
